Measured values published in PMC8151276, “An Integrated Approach toward NanoBRET Tracers for Analysis of GPCR Ligand Engagement” (Molecules, 2021).

Legend:
Format in all cases: binding
CCR1 = molecular target: T1, CCR1 (Homo sapiens, UniProt P32246); assay: NanoBRET screen HiBiT-CCR1 in HEK293
T1 construct: purchased Promega (in-house HiBiT-GPCR construct library, NanoBRET)
T1 sequence (P32246 1-355): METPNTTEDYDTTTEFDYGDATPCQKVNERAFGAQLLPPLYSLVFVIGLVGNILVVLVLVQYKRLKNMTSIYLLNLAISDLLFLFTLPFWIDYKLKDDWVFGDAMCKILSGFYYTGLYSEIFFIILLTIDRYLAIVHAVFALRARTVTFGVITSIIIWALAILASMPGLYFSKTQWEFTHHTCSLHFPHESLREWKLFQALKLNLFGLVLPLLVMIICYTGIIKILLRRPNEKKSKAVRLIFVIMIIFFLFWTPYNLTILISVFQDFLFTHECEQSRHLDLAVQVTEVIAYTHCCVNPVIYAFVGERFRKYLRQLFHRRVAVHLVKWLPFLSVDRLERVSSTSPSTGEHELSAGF
Experimental: (§1) Each tracer candidate was screened across the entire library of HiBiT-GPCR constructs using NanoBRET as the detection modality. As depicted in Figure 4A, the specificity of interactions was evaluated through decrease in BRET due to competitive displacement of a bound tracer by excess parental compound. Each tracer was analyzed for binding to each HiBiT-GPCR fusion in the absence and in the presence of competing parental compound. Briefly, HEK293 cells were transfected with HiBiT-GPCR constructs diluted into promoterless DNA to reduce expression and maximize translocation to the cell surface. Each tracer candidate was then screened at concentrations of 1 μM and 0.1 μM across cells expressing these fusions. Cells were treated for 1.5 h with tracer either alone or in the presence of 20 μM competing parental compound (i.e., control). BRET was measured upon addition of purified LgBiT and subsequent complementation with HiBiT genetically fused to a GPCR. The specificity of interactions was assessed through a decrease in BRET signal due to competitive displacement of the bound tracer. To further gauge the robustness of these interactions, the fold response over the control (i.e., BRETtracer/BRETcontrol) was calculated. We chose a 1.5-fold response, which translates to ≥7-fold signal over noise as the minimal threshold required to score an interaction as positive. […]. Below we highlight the screening results obtained for our exemplary fluorescent tracers based on Clozapine, Amitriptyline and AZD1283.
(§2) HiBiT-GPCR DNA constructs were diluted in 10 mM Tris pH 8 to a final concentration of 0.01 μg/μL, arrayed in 96-well plates and stored at −20 °C. For transfection, HEK293 cells were suspended in Opti-MEM (without phenol red) supplemented with 2% fetal bovine serum (Seradigm) and 100 units/mL penicillin–streptomycin (Gibco) at a final concentration of 220,000 cells/mL and dispensed into white 96-well plates at 90 μL/well. Subsequent transfections and screens were carried using an Agilent Bravo Automated Liquid Handling Platform. First, the 96-well HiBiT DNA arrays were diluted 25-fold in Opti-MEM (without serum or phenol red) to a final concentration of 0.0004 μg/μL and 20 μL of the diluted DNAs were transferred into new 96-well plates. Next, promoterless carrier DNA (1 μg/μL) was diluted 25-fold (0.04 μg/μL) and then dispensed into the diluted arrays at 20 μL/well. Following brief mixing, Viafect transfection reagent (Promega) diluted 16-fold into Opti-MEM was dispensed into the plates at 40 μL/well. After mixing by pipetting, plates were incubated for 10 min on the pipetting station deck. The DNA-transfection reagent complexes were then added to plates containing cells. To facilitate the screen, 10 μL of DNA-transfection reagent complexes were added in duplicates to the top 4 and bottom 4 rows, resulting in two identical 48-well arrays per plate. Plates with transfected cells were incubated for 18–20 h at 37 °C/5% CO2. A screen of each tracer across the entire library using two different concentrations requires duplicate plates of transfected cells. Depending on the number of tracers being screened, transfections can be scaled up using the same ratios. The next day, for each tracer, four 20× screening solutions in tracer dilution buffer (Promega) were prepared: two duplicates at final concentration of 20 μM and two duplicates at a final concentration of 2 μM. A competing unmodified compound was added to one of each duplicate at a final concentration of 400 μM. The four resulting solutions were diluted 4-fold in Opti-MEM without serum or phenol red to generate 5× solutions (5 µM and 0.5 µM tracer +/− 100 μM competing compound). To screen the library, a BioTek MultiFlo FX liquid dispenser was used to dispense 22.5 µL of tracer solution to the top 4 rows and 22.5 µL tracer + competing compound solution to the 4 bottom rows. Plates were briefly mixed on an orbital shaker and incubated for 1.5 h at room temperature. […]

CXCR5 = molecular target: T2, CXCR5 (Homo sapiens, UniProt P32302); assay: NanoBRET screen HiBiT-CXCR5 in HEK293
T2 construct: purchased Promega (in-house HiBiT-GPCR construct library, NanoBRET)
T2 sequence (P32302 1-372): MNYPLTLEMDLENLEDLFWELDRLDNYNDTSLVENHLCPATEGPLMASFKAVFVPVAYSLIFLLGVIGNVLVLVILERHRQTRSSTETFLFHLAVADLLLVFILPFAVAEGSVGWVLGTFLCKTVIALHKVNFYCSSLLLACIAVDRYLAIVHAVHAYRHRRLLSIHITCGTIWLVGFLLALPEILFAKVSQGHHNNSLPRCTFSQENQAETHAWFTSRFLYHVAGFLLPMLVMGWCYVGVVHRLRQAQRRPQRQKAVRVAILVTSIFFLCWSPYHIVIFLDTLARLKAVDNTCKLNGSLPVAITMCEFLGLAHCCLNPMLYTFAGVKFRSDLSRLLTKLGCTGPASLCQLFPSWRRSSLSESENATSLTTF
Experimental: as §1, §2

CCR7 = molecular target: T3, CCR7 (Homo sapiens, UniProt P32248); assay: NanoBRET screen HiBiT-CCR7 in HEK293
T3 construct: purchased Promega (in-house HiBiT-GPCR construct library, NanoBRET)
T3 sequence (P32248 25-378): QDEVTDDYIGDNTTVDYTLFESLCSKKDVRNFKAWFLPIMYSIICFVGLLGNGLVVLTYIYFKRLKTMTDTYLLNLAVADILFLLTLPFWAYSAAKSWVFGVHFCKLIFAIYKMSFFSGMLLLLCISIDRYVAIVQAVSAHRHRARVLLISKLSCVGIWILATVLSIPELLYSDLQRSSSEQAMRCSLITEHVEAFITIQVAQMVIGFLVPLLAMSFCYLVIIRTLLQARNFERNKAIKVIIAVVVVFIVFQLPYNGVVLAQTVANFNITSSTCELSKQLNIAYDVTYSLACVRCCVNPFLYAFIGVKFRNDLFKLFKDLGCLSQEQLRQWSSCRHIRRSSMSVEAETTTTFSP
Experimental: as §1, §2

[1] = tracer at 0.1μM, listed as amitriptyline-b-2-NB590
[2] = tracer at 1μM, listed as amitriptyline-b-2-NB590

Structure (SMILES)	NanoBRET Fold Response (CCR1; CCR1, tracer 0.1μM)	NanoBRET Fold Response (CCR1; CCR1, tracer 1μM)	NanoBRET Fold Response (CXCR5; CXCR5, tracer 0.1μM)	NanoBRET Fold Response (CXCR5; CXCR5, tracer 1μM)	NanoBRET Fold Response (CCR7; CCR7, tracer 0.1μM)	NanoBRET Fold Response (CCR7; CCR7, tracer 1μM)	further results
CN1CCN(C2=Nc3cc(Cl)ccc3Nc3ccc(CNC(=O)CCOCCOCCOCCOCCNC(=O)CCc4ccc5n4[B-](F)(F)[N+]4=C(c6ccc[nH]6)C=CC4=C5)cc32)CC1 [Clozapine-b-2-NB590]							NanoBRET Fold Response (CCR1; CCR1, 0.1μM tracer): 1.04; NanoBRET Fold Response (CCR1; CCR1, 1μM tracer): 0.98; NanoBRET Fold Response (CXCR5; CXCR5, 0.1μM tracer): 0.95; NanoBRET Fold Response (CXCR5; CXCR5, 1μM tracer): 1.02; NanoBRET Fold Response (CCR7; CCR7, 0.1μM tracer): 1.00
CN(C)CCC=C1c2ccccc2CCc2ccc(C(=O)NCCNC(=O)CCOCCOCCOCCOCCNC(=O)CCc3ccc4n3[B-](F)(F)[N+]3=C(c5ccc[nH]5)C=CC3=C4)cc21 [Amitriptyline-b-2-NB590]							NanoBRET Fold Response (CCR1; [1]): 0.84; NanoBRET Fold Response (CCR1; tracer at 1μM): 0.97; NanoBRET Fold Response (CXCR5; [1]): 1.39; NanoBRET Fold Response (CXCR5; [2]): 1.19; NanoBRET Fold Response (CCR7; [1]): 1.00; NanoBRET Fold Response (CCR7; [2]): 1.00
CCOC(=O)c1cc(C#N)c(N2CCC(C(=O)NS(=O)(=O)Cc3ccccc3/C=C/C(=O)NCCNC(=O)CCc3ccc4n3[B-](F)(F)[N+]3=C(c5ccc[nH]5)C=CC3=C4)CC2)nc1C [AZD1283-1-NB590]							NanoBRET Fold Response (CCR1; CCR1, 0.1μM): 1.05; NanoBRET Fold Response (CCR1; CCR1, 1μM): 1.03; NanoBRET Fold Response (CXCR5; CXCR5, 0.1μM): 1.04; NanoBRET Fold Response (CXCR5; CXCR5, 1μM): 1.12; NanoBRET Fold Response (CCR7; CCR7, 0.1μM): 1.03; NanoBRET Fold Response (CCR7; CCR7, 1μM): 1.01
CC(C)N(CC[C@H](c1ccccc1)c1cc(CCNC(=O)CCOCCOCCOCCOCCNC(=O)CCc2ccc3n2[B-](F)(F)[N+]2=C(c4ccc[nH]4)C=CC2=C3)ccc1O)C(C)C [Tolterodine-2-NB590]	0.97	0.94	1.31	1.00	1.26	0.88	
CC(C)N(CC[C@H](c1ccccc1)c1cc(CCNC(=O)c2ccc(CNC(=O)CCc3ccc4n3[B-](F)(F)[N+]3=C(c5ccc[nH]5)C=CC3=C4)cc2)ccc1O)C(C)C [Tolterodine-BZ-NB590]	1.09	0.96	0.86	0.91	1.00	1.01	
O=C(CCOCCOCCOCCOCCNC(=O)CCc1ccc2n1[B-](F)(F)[N+]1=C(c3ccc[nH]3)C=CC1=C2)NCCCN1CCN(C2=Nc3ccccc3Oc3ccc(Cl)cc32)CC1 [Loxapine-a-2-NB590]	1.00	0.99	0.29	0.90	1.00	1.11	
